Results taken from patent US11198710B2, “Transgenic plant having herbicide resistance” (priority 2016, dated 2021).

Tested on: wild-type rice plant (Nipponbare)
Assay: Sensitivity of wild-type rice (Nipponbare) to VLCFAE-inhibiting herbicides, gellan gum medium
Type: in vivo
Details: Oryza sativa, 168 h
Description: Whether or not a rice plant comprising the TaQ8GTC0 gene introduced therein has VLCFAE-inhibiting herbicide resistance was determined on the basis of a difference in sensitivity of rice between transformant and wild-type. Accordingly, the sensitivity of the wild-type rice plant (Nipponbare) to VLCFAE-inhibiting herbicides used in the glutathione conjugation activity test was examined as described below.
The growth inhibition test was carried out using a gellan gum medium. Hoagland's mix and 3 g of gellan gum were suspended in 1 liter of distilled water and thoroughly dissolved therein by heating in a microwave. A fraction of the resultant (15 ml) was poured in a tubular bottle before it was cooled. When the herbicide (an acetone solution) was to be incorporated thereinto, the herbicide was simultaneously added at the time of filling of the gellan gum medium into the tubular bottle, followed by thorough mixing (final acetone concentration: 0.1%). Rice hulls were soaked in a 50-fold diluted sodium hypochlorite solution (antiformin) (Wako) for approximately 20 minutes and then thoroughly rinsed with water. Sterilized seeds were soaked in distilled water and allowed to stand at 27° C. for germination (for approximately 2 days). Germinating seeds were transferred with the sprout side up to a gellan gum medium containing herbicide (the tubular bottle). Subsequently, these samples, together with a beaker filled with distilled water, were placed in a transparent case, which was then covered with a clear plastic wrap. These samples were grown at 27° C. under fluorescent light illumination (14 hours of a light period and 10 hours of a dark period) for 1 week, the plants were sampled, and the plant heights were then measured. Inhibition of shoot growth was determined by comparison to control plant grown in the absence of herbicide and the concentration required for 50% inhibition (IC50) was determined by the Probit method.

Cn1nc(C(F)(F)F)c(CS(=O)(=O)C2=NOC(C)(C)C2)c1OC(F)F [Pyroxasulfone, 3-[5-(difluoromethoxy)-1-methyl-3-(trifluoromethyl)pyrazol-4-ylmethylsulfonyl]-4,5-dihydro-5,5-dimethyl-1,2-oxazole] showed a minimal effective concentration (minimal concentration at which growth of wild-type rice is inhibited, read-out: Minimal inhibitory concentration) of 0.075 µM and an IC50 (shoot growth, 1 week, Probit method, read-out: I50) of 48 nM.
